One data set deals with IL-2 reporter (JAK1/3). As to the kind of experiment: IL-2 reporter assay in HEK-Blue IL-2 cells. The format is cell-based. The method, then:
IL-2 reporter assay. Seed HEK-Blue™ IL-2 Cells (1-3×10^4 cells/well/[…]) to 96 cell plate with DMEM (10% HFBS+1% PS) and incubate overnight at 5% CO2&37° C. Diluent compounds in DMSO. Three times dilution and 10 doses. Add compounds to cell plate and incubate 1 h at 5% CO2&37° C. Add IL-2 (1 ng/mL) to cell plate and incubate overnight at 5% CO2&37° C. Prepare QUANTI-Blue Solution: add 100 μl of QB reagent and 100 μl of QB buffer to 9800 μl sterile water. Use cell supernatant and QUANTI-Blue solution in proportion of 1 to 10, incubate 2 h at 37° C. Read OD630.
(In general: Reporter assays use an easily measured gene product as a stand-in for the process of interest.)

The test system of data set [1] is IL-23 reporter (JAK2/Tyk2). Put plainly: IL-23 induced STAT3 QUANTI-Blue reporter assay in HEK-Blue IL-23 cells. The format is cell-based. On the procedure:
Biological Example 2. IL-23 Induced STAT3 QUANTI-Blue in HEK-Blue™ IL-23 Cells
HEK-Blue™ IL-23 cells were prepared at 2×10^5 cells/ml for adding 5000 cell/well and incubate plates containing compounds+cells for 1 hour at 37° C. Prepare IL-23 (treatment at final conc. 0.1 ng/mL) during incubation and add 2 ul per well of prepared cytokine in media to appropriate wells. The plate was incubated for overnight at 37° C. The next day, QUANTI-Blue solution was prepared. 18 ul of QUANTI-Blue solution per well was added into a new 384-well clear flat bottom plate, followed by addition of 2 ul of induced and treated HEK-Blue cell supernatant from overnight plate. The plate was incubated at 37° C. for 2 hours and SEAP levels determined.

A further data set in a line: Dog PK. The format is in vivo, Beagle dogs. The conditions noted are these: beagle, plasma. The method, then: Biological Example 7. Dog PK
Selected exemplified compounds of the present disclosure were also tested in dog for pharmacokinetic studies. The Beagle dogs were fasted overnight with free access to drinking water prior to treatment. All the dosing solutions were freshly prepared prior to dose administration. In intravenous administration animal group were given a single dose of compound at 1 mg·kg-1. Blood for plasma samples were collected at pre-dose, 5, 15, 30 min, 1, 2, 4, 8, 12 and 24 h through vein into tubes anticoagulated with EDTA-K2. In intragastric administration animal group were given a single dose of compound at 5 mg·kg-1. Blood for plasma samples (˜0.5 mL) were collected at pre-dose, 15, 30 min, 1, 2, 4, 8, 12 and 24 h post-dose through vein into tubes anticoagulated with EDTA-K2. Blood samples were inverted several times and were held on wet ice pending centrifugation. The samples were centrifuged (within 20 minutes of collection) in a centrifuge set at 4° C. for 10 minutes at 1500-1600 g to obtain plasma. Plasma samples were transferred and frozen immediately after separation and stored in a freezer set at below −70° C. prior to analysis.

A further data set deals with IFNγ reporter (JAK1/2). As to the kind of experiment: IFN-γ reporter assay in HEK-Dual IFN-γ cells. In kind it is cell-based. On the procedure: IFN-γ reporter assay. Seed HEK-Dual™ IFN-γ Cells (1-3×10^4 cells/well/[…]) to 96 cell plate with DMEM (10% HFBS+1% PS) and incubate overnight at 5% CO2&37° C. Diluent compounds in DMSO. Three times dilution and 10 doses. Add compounds to cell plate and incubate 1 h at 5% CO2&37° C. Add IFN-γ (0.1 ng/mL) to cell plate and incubate overnight at 5% CO2&37° C. Prepare QUANTI-Blue Solution: add 100 μl of QB reagent and 100 μl of QB buffer to 9800 μl sterile water. Use cell supernatant and QUANTI-Blue solution in proportion of 1 to 10, incubate 2 h at 37° C. Read OD630.

In data set [2] the target is N-terminal His-tagged TYK2 pseudokinase domain (Homo sapiens (Human), UniProt P29597). Put plainly: TYK2 JH2 domain SPA binding assay. The following applies: displacement of H3 probe. The method, then:
TYK2 JH2 Domain Binding Assay
After incubating at room temperature for 30 min, the inhibition was calculated by the displacement of [3H] 3 binding as determined by scintillation counting.

The subject of data set [3] is IL-12/IL-18 induced IFN-gamma production. Put plainly: In vivo inhibition of IL-12/IL-18 induced IFN-gamma. The following applies: mice, oral. On the procedure:
Biological Example 5. In Vivo Inhibition of IL-12/IL-18 Induced IFN-Gamma
Selected exemplified compounds of the present disclosure (compound Examples 4 and 5) and BMS986165 were dosed orally to female C57BL/6J mice (Charles River). One hour later, 0.05 μg of recombinant rat IL-12 was administered IV. Another hour later following IL-12 administration, 1 μg of recombinant rat IL-18 was administered IV. Three hours later, blood was collected and serum were obtained by centrifugation for analysis of IFNγ by ELISA.

Another data set has as its target Jak1 JH2 (Homo sapiens (Human), UniProt P23458). Put plainly: Jak1 JH2 HTRF binding. The following applies: biochemical assay.
The test system of data set [4] is IFNα/β reporter (JAK1/Tyk2). As to the kind of experiment: IFN-alpha/beta reporter assay in HEK-Blue IFN-a/b cells. The format is cell-based. The following applies: cellular assay. The method, then: IFN-alpha/beta reporter assay. Seed HEK-Blue™ IFN-a/b cells (1-3×10^4 cells/well/[…]) to 96 cell plate with DMEM (10% HFBS+1% PS) and incubate overnight at 5% CO2&37° C. Diluent compounds in DMSO. Three times dilution and 10 doses. Add compounds to cell plate and incubate 1 h at 5% CO2&37° C. Add IFN-alpha/beta (5 U/ml) to cell plate and incubate overnight at 5% CO2&37° C. Prepare QUANTI-Blue Solution: add 100 μl of QB reagent and 100 μl of QB buffer to 9800 μl sterile water. Use cell supernatant and QUANTI-Blue solution in proportion of 1 to 10, incubate 2 h at 37° C. Read OD630.

Another data set relates to IL-23-induced psoriasis. As to the kind of experiment: In vivo mouse psoriasis model induced by human IL-23. The conditions noted are these: mice, 7.5, 15 and 30 mg/kg BID oral gavage. The method, then:
Biological Example 6. In Vivo Mouse Psoriasis Model Selected exemplified compounds of the present disclosure were also tested in a mouse psoriasis model induced by human IL-23. Psoriasis was induced in 6-8-week-old C57BL/6J female mice (Charles River) by intradermal injection of recombinant human IL-23 into the left ear. IL-23 injections were administered every other day from day 1 through day 9 of the study. Selected compounds at 7.5, 15, and 30 mg/kg, with 15 mg/kg BMS986165 as positive control were dosed BID by oral gavage, with the first dose given the evening before first IL-23 injection. Ear thickness was measured every other day, prior to the ear injection.

The mark [5] stands for this setting: HEK-Blue, cellular assay, read-out: IL-2 reporter assay (JAK1/3) IC50.
[6] abbreviates: HEK-Blue IL-23, cellular assay, Table 3 and text, read-out: IL-23 reporter assay (JAK2/Tyk2) IC50.
The mark [7] stands for this setting: HEK-Blue IL-23 cells, Table 2, read-out: IL23 reporter assay_IC50.
Where [8] appears, read: cellular assay, read-out: IFNγ reporter assay (JAK1/2) IC50.

Where two headings read alike, the source gives them in different places. Bounds are passed on as bounds.

Chain of N-terminal His-tagged TYK2 pseudokinase domain (P29597 589-875): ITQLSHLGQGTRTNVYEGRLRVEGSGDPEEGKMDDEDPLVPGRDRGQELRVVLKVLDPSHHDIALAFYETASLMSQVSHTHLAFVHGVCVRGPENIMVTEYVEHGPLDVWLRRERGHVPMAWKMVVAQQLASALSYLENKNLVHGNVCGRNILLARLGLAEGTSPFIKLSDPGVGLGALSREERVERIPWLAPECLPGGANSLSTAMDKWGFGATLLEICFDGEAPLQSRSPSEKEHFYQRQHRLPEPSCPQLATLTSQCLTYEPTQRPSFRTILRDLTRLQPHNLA
Chain of Jak1 JH2 (P23458 583-855): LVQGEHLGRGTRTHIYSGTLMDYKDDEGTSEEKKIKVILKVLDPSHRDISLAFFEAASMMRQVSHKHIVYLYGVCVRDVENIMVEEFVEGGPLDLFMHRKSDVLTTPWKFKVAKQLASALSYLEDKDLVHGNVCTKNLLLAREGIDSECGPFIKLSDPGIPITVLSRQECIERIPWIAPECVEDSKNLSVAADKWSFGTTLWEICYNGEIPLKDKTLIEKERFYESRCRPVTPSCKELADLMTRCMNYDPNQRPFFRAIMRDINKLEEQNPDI

Take `[2H]C([2H])([2H])NC(=O)c1nnc(NC(=O)C2CC2)cc1Nc1cccc(-c2ncn(C)n2)c1OC` [BMS-986165, reference compound]: the IC50 with IL-2 reporter (JAK1/3) (setting [5]) is 221 nM; with IL-2 reporter (JAK1/3) (cellular assay, read-out: IL-2 reporter assay (JAK1/3) IC50), 221 nM; in data set [1] (setting [6]), 3.5 nM; in [1] (setting [7]), 3.76 nM; with IFNγ reporter (JAK1/2) (setting [8]), 1.09 µM. In addition, the AUC(0-t) was determined as 3.8 µM·h in “Dog PK” (intravenous, 1 mg/kg single dose, read-out: AUC0-t (IV)) and 22.3 µM·h in “Dog PK” (po, intragastric, 5 mg/kg single dose, read-out: AUC0-t (PO)). Besides, the Cmax (commonly the peak of the concentration-time curve) in “Dog PK” (po, intragastric, 5 mg/kg single dose) was 2700 nM.

Turning to `[2H]C([2H])([2H])NC(=O)c1cnc(NC(=O)C2CC2)cc1Nc1cccc(C(=O)NCc2ccc(NC(=O)C=C)cn2)c1OC` [Example 1, 4-((3-(((5-acrylamidopyridin-2-yl)methyl)carbamoyl)-2-methoxyphenyl)amino)-6-(cyclopropanecarboxamido)-N-(methyl-d3)nicotinamide], the results for the IC50 in data set [2] and in data set [1] (setting [7]) were 27 nM and 318 nM, respectively.

With `[2H]C([2H])([2H])NC(=O)c1cnc(NC(=O)C2CC2)cc1Nc1cccc(C(=O)NCc2ccc(NC(=O)CCl)cn2)c1OC` [Example 2, 4-((3-(((5-(2-chloroacetamido)pyridin-2-yl)methyl)carbamoyl)-2-methoxyphenyl)amino)-6-(cyclopropanecarboxamido)-N-(methyl-d3)nicotinamide], the values for the IC50 in [2] and in data set [1] (setting [7]) were 5.56 nM and 15.7 nM, respectively.

Turning to `[2H]C([2H])([2H])NC(=O)c1cnc(NC(=O)C2CC2)cc1Nc1cccc(-c2cc(=O)n(C3CC3)cn2)c1OC` [Example 3, 6-(cyclopropanecarboxamido)-4-((3-(1-cyclopropyl-6-oxo-1,6-dihydropyrimidin-4-yl)-2-methoxyphenyl)amino)-N-(methyl-d3)nicotinamide], the IC50 came to 16.1 nM in data set [2] and 6.5 nM in [1] (setting [7]).

Turning to `[2H]C([2H])([2H])NC(=O)c1nnc(NC(=O)C2CC2)cc1Nc1cccc(-c2cc(=O)n(C3CC3)cn2)c1OC` [Example 4, 6-(cyclopropanecarboxamido)-4-((3-(1-cyclopropyl-6-oxo-1,6-dihydropyrimidin-4-yl)-2-methoxyphenyl)amino)-N-(methyl-d3)pyridazine-3-carboxamide], the “inhibition of IFNγ production” value in data set [3] (2.5 mpk) worked out at 52.7%; in [3] (5 mpk), 76.0%; in [3] (7.5 mpk) it was 88.6%. Further, the “inhibition of IFNγ production (reduction compared to vehicle treated group)” value in data set [3] (10 mpk) is 93.3%. The IC50 is 4.99 nM on Jak1 JH2; about 4 nM in data set [4] (HEK-Blue); 3.7 nM in [4]; 696 nM with IL-2 reporter (JAK1/3) (setting [5]); over 10000 nM in the data set with IL-2 reporter (JAK1/3) (HEK-Blue, read-out: IC50 in IL-2 reporter assay (JAK1/3)); 18 nM in [1] (HEK-Blue IL-23, HEK-Blue IL-23 cells, Table 2, read-out: IL23 reporter assay_IC50). The IC50 in [1] (setting [6]) is about 18 nM; in [1] (cellular assay, Table 3 and text, read-out: IL-23 reporter assay (JAK2/Tyk2) IC50) it was 18.3 nM; with IFNγ reporter (JAK1/2) (setting [8]), over 10 µM; with IFNγ reporter (JAK1/2) (read-out: IC50 in IFN-gamma reporter assay (JAK1/2)), over 10 µM. In addition, the “protection from IL-23-induced psoriasis (ear thickness), result in words” value with IL-23-induced psoriasis is listed as “dose-dependently protect mice from IL-23-induced psoriasis”.

On to `[2H]C([2H])([2H])NC(=O)c1cnc(NC(=O)C2CC2)cc1Nc1cc(F)cc(-c2cc(=O)n(C3CC3)cn2)c1OC` [Example 6], for which the IC50 in [2] was found to be 30 nM; in [1] (setting [7]), 18 nM.

Turning to `[2H]C([2H])([2H])NC(=O)c1nnc(NC(=O)C2CC2)cc1Nc1cc(F)cc(C2=NC3(CC3)C(=O)N2)c1OC` [Example 9], the IC50 in data set [1] (setting [7]) worked out at 318 nM.

For `[2H]C([2H])([2H])NC(=O)c1nnc(NC(=O)C2CC2)cc1Nc1cccc(C2=NC3(CC3)C(=O)N2)c1OC` [Example 10], the IC50 in data set [1] (setting [7]) is 74 nM.

Regarding `[2H]C([2H])([2H])NC(=O)c1cnc(NC(=O)C2CC2)cc1Nc1cccc(C2=NC3(CC3)C(=O)N2)c1OC` [Example 11], the IC50 in data set [1] (setting [7]) was 111 nM.

Regarding `[2H]C([2H])([2H])NC(=O)c1nnc(NC(=O)C2CC2)cc1Nc1cc(F)cc(-n2cnc(C)n2)c1OC` [Example 12], in data set [1] (setting [7]), the IC50 is 15 nM.

Regarding `[2H]C([2H])([2H])NC(=O)c1nnc(NC(=O)C2CC2)cc1Nc1cccc(-n2ncc(C)n2)c1OC` [Example 13], the IC50 in [1] (setting [7]) is 38 nM.

In the case of `[2H]C([2H])([2H])NC(=O)c1nnc(NC(=O)C2CC2)cc1Nc1cc(F)cc(-n2ncc(C)n2)c1OC` [Example 14], in data set [1] (setting [7]), the IC50 was determined as 71 nM.

As for `[2H]C([2H])([2H])NC(=O)c1nnc(NC(=O)C2CC2)cc1Nc1cccc(-c2nc(=O)n(C)[nH]2)c1OC` [Example 15], the IC50 in [1] (setting [7]) turned out to be 25 nM.
